Tests used:
[1] = tested on: bronchospasms elicited by 5-hydroxytryptamine; experiment: Bronchodilator activity (Konzett assay) against 5-hydroxytryptamine; format: in vivo, guinea pigs; settings: guinea pig, three cumulative intravenous doses; for ED50: Cavia porcellus, read-out: ED50, spasmogenic agent 5-hydroxytryptamine
Protocol: (§1) Bronchodilator activity was determined in guinea pigs against bronchospasms elicited by intravenous injections of 5-hydroxytryptamine, histamine or acetylcholine by the Konzett procedure, [See J. Lulling, P. Lievens, F. El Sayed and J. Prignot, Arzneimittel-Forschung, 18, 995 (1968).]
(§2) In the Table which follows bronchodilator activity for representative compounds of this invention against one or more of the three spasmogenic agents is expressed as an ED50 determined from the results obtained with three logarithemic cumulative intravenous dose.

[2] = tested on: gastric acid secretion; experiment: Inhibition of gastric acid secretion (modified Shay rat procedure); format: in vivo, rats (male, CFE strain); settings: 3 hours; for inhibition in vivo at 50 mg/kg: intraduodenal dose 50 mg./kg of body weight
Protocol: The novel compounds of the present invention are also effective inhibitors of gastric acid secretion and of ulcer development in experimental animals, and thus are potentially valuable as agents for the control of gastric acid secretion and of gastric erosion and as anti-ulcer agents. Gastric acid secretion inhibitory action is usually measure by the "Shay rat" procedure^(1,2) with some modifications as follows.
The rats (male, CFE strain) were starved for 48 hours (water was given ad libitum) to permit evacuation of stomach contents. On the morning of the experiment, under ether anesthesia, the abdominal region was shaved and a midline incision (1-11/2 inches) was made with a scapel. With the help of a closed curved hemostate the duodenum was picked up. Upon getting the duodenum into view, fingers were used to pull the stomach through the opening, the stomach was then gently manipulated with fingers to rid the stomach of air and residual matter which were pushed through the pylorus. Two-5 inch sutures were drawn under the pyloric-duodenal puncture. A ligature, at the juncture, was formed with one of the threads. The second ligature was also formed but not tightened.
The test compound and the vehicle, usually 1 ml./100 g. body weight, were injected into the duodenum as close as possible to the first ligature. After injection the second ligature was tightened below the injection site to minimize leakage. The stomach was placed back through the opening into the abdominal cavity, the area of incision was washed with saline and the incision was closed with autoclips. (Occasionally, instead of an intraduodenal injection, animals were dosed by the oral or subcutaneous route. In the latter case, dosing was done 30 to 60 minutes before the operation.)
The abdominal cavity was exposed by cutting with scissors and the esophagus close to the stomach was clamped off with a hemostat, the stomach was removed by cutting above the hemostat (the .[.espphagus.]. .Iadd.esophagus .Iaddend.was cut) and between the two sutures. Extraneous .[.tisue.]. .Iadd.tissue .Iaddend.was removed, the stomach washed with saline and blotted on gauze. A slit was carefully made in the stomach which was held over a funnel and the contents were collected in a centrifuge tube. The stomach was further cut along the outside edge and turned inside out. Two ml. H2 O were used to wash the stomach contents into the respective centrifuged tube. The combined stomach contents and wash were then centrifuged out for 10 min. in the International Size 2 Centrifuge (setting at 30). The supernatant was collected, volume measured and recorded, 2 drops of a phenylphthalein indicator (1% in 95% ethanol) were added and the solution was titrated with 0.02N NaOH (or with 0.04N NaOH when large volumes of stomach contents were encountered to pH 8.4 (because of usual coloring of the stomach contents, phenolphthalein was only used to permit visual indication that the end point was near) and the amount of acid present was calculated.
Compounds inducing inhibition of gastric acid secretion of 20% or more were considered active. In a representative operation, and merely by way of illustration, the results obtained with this assay with typical compounds of the present invention are given in Table II below.

[3] = tested on: bronchospasms elicited by histamine; experiment: Bronchodilator activity (Konzett assay) against histamine; format: in vivo, guinea pigs; settings: guinea pig, three cumulative intravenous doses; for ED50: Cavia porcellus, read-out: ED50, spasmogenic agent histamine
Protocol: as §1, §2

[4] = tested on: bronchospasms elicited by acetylcholine; experiment: Bronchodilator activity (Konzett assay) against acetylcholine; format: in vivo, guinea pigs; settings: Cavia porcellus, guinea pig, three cumulative intravenous doses, read-out: ED50, spasmogenic agent choline
Protocol: as §1, §2

[5] = tested on: ulcerogenic properties of indomethacin; experiment: Anti-ulcerogenic effect (protection against the ulcerogenic properties of indomethacin); format: in vivo, rats; settings: indomethacin 20 mg./kg s.c.
Protocol: The compounds of this invention also provide protection against the ulcerogenic properties of indomethacin. This assay was carried out in the following manner.
Rats were starved for 48 hours (water was given ad libitum). Indomethacin (20 mg./kg. of body weight) was administered by the subcutaneous route and one-half the dose of the test compound was administered by gavage at the same time. After 3 hours, the second half of the test compound was administered also by gavage. Five hours after the administration of indomethacin the animals were decapitated and the stomachs removed. The stomachs were washed with distilled water, blotted on gauze, cut along the larger curvature, and the contents rinsed with distilled water. The stomachs were spread out, pinned on a cork and visualized under magnifying glass for ulcers. The criteria for scoring of .[.ulers.]. .Iadd.ulcers .Iaddend. was as previously reported. [Abdel-Galil et al. Brit. J. Pharmac. Chemotherapy 33:1-14 (1968)]. […]
1- Petechial hemorrhage or pin point ulcers
3- Many ulcers, a few large
4- Many ulcers, mainly large
A difference of at least 0.7 unit between the scores for control animals (treated with indomethacin but not test compound) and animals treated with indomethacin and test compound is considered indicative of activity for the test compound. (Control animals treated with neither indomethacin nor test compound give scores of about 0.5-0.8.) The results obtained in this assay with typical compounds of the present invention are set forth in Table I below.

[6] = Rattus norvegicus, read-out: Percent Inhibition
[7] = total oral dose 50 mg./kg, control score 2.3, scale 0 (normal stomach) to 4 (many ulcers, mainly large)
[8] = Rattus norvegicus, intraduodenal dose 100 mg./kg of body weight, read-out: Percent Inhibition

“9-oxo-18-hydroxy-19-hydroxy-13-trans-prostenoic acid” was tested, and the “ED50, spasmogenic agent 5-hydroxytryptamine” value [1] was 1.19 mg/kg, the “Percent Inhibition” value ([2]; intraduodenal dose 100 mg./kg of body weight) was 28% and the “ED50, spasmogenic agent histamine” value [3] was 1.04 mg/kg.

With `CCCCC(O)C/C=C/[C@H]1[C@H](O)CC(=O)[C@@H]1CCCCCCC(=O)O` (relative stereo) [9-oxo-11α ,16-dihydroxy-13-trans-prostenoic acid] the ED50 [1] was 0.000607 mg/kg, the ED50 [4] was 0.00042 mg/kg and the inhibition in vivo at 0.4 mg/kg ([2]; Rattus norvegicus, dose 0.4* mg./kg of body weight (asterisk not explained), read-out: Percent Inhibition) was 27%. For the same compound, the inhibition in vivo at 0.8 mg/kg ([2]; Rattus norvegicus, dose 0.8* mg./kg of body weight (asterisk not explained), read-out: Percent Inhibition) was 53%, the inhibition in vivo at 1.6 mg/kg ([2]; Rattus norvegicus, dose 1.6* mg./kg of body weight (asterisk not explained), read-out: Percent Inhibition) was 79% and the ED50 [3] was 0.166 mg/kg. The Score treated ([5]; total oral dose 0.18 mg./kg, control score 3.0, scale 0-4) was 2.5, the Score treated ([5]; total oral dose 0.39 mg./kg, control score 3.0, scale 0-4) was 2.0 and the Score treated ([5]; total oral dose 0.78 mg./kg, control score 3.0, scale 0-4) was 1.5. For the same compound, the Score treated ([5]; total oral dose 1.56 mg./kg, control score 2.5, scale 0-4) was 1.0, the Score treated ([5]; total oral dose 4.4 mg./kg, control score 3.0, scale 0-4) was 1.0 and the Score treated ([5]; total oral dose 12.5 mg./kg, control score 3.0, scale 0-4) was 1.0.

In the case of `CCCC(O)CC/C=C/[C@H]1[C@H](O)CC(=O)[C@@H]1CCCCCCC(=O)O` (relative stereo) [9-oxo-11α,17-dihydroxy-13-trans-prostenoic acid], the ED50 [1] is reported as 0.235 mg/kg, the ED50 [4] is reported as 0.518 mg/kg and the inhibition in vivo at 50 mg/kg [2, 6] is reported as 73%. For the same compound, the ED50 [3] was 0.45 mg/kg and the Score treated ([5]; total oral dose 25 mg./kg, control score 2.7, scale 0-4) was 1.3.

In the case of `O=C(O)CCCCCC[C@H]1C(=O)C[C@@H](O)[C@@H]1/C=C/CCCCCCO` (relative stereo) [11α ,20-dihydroxy-9-oxo-13-trans-prostenoic acid], the ED50 [1] is reported as 0.377 mg/kg, the ED50 [4] is reported as 2.34 mg/kg and the ED50 [3] is reported as 0.077 mg/kg.

Compound `CCCCC(O)C/C=C/[C@H]1CCC(=O)[C@@H]1CCCCCCC(=O)O` (relative stereo) [16-hydroxy-9-oxo-13-trans-prostenoic acid] has an ED50 [4] of 0.455 mg/kg, an inhibition in vivo at 50 mg/kg [2, 6] of 67% and an ED50 [3] of 0.0346 mg/kg. It also gave a Score treated [5, 7] of 1.2.

`O=C(O)CCCCCC[C@H]1C(=O)C=C[C@@H]1/C=C/CCCCCCO` (relative stereo) [20-hydroxy-9-oxo-10,13-trans-prostadienoic acid] showed an ED50 [1] of 1.32 mg/kg, an inhibition in vivo at 50 mg/kg [2, 6] of 91% and an ED50 [3] of 2.28 mg/kg.

For `O=C(O)CCCCCC[C@H]1C(=O)CC[C@@H]1/C=C/CCCCCCO` (relative stereo) [20-hydroxy-9-oxo-13-trans-prostenoic acid], the ED50 [1] was 0.117 mg/kg, the ED50 [4] was 2.16 mg/kg and the inhibition in vivo at 100 mg/kg [2, 8] was 56%. The ED50 [3] was 0.03 mg/kg.

With `O=C(O)CCCCCC[C@@H]1C(=O)CC[C@H]1/C=C/CCCCO` (relative stereo) [20-hydroxy-9-oxo-18,19-dinor-13-trans-prostenoic acid] the ED50 [1] was 2.85 mg/kg, the ED50 [4] was 10 mg/kg and the inhibition in vivo at 50 mg/kg [2, 6] was 21%. The ED50 [3] was 2.22 mg/kg.

With `CCOC(=O)CCCCCC[C@@H]1C(=O)CC[C@H]1/C=C/CCCCO` (relative stereo) [ethyl 20-hydroxy-9-oxo-18,19-dinor-13trans-prostenoate] the inhibition in vivo at 100 mg/kg [2, 8] was 49%.

`CCCCC(O)CCC[C@H]1CCC(=O)[C@@H]1CCCCCCC(=O)O` (stereo partly shown) [9-oxo-16-hydroxy-prostanoic acid, 16-hydroxy-9-oxo-prostanoic acid] was tested, and the ED50 [1] was 0.0927 mg/kg, the ED50 [4] was 1.13 mg/kg and the inhibition in vivo at 50 mg/kg [2, 6] was 58%. For the same compound, the Score treated [5, 7] was 1.3.

From patent publication USRE29469E, “Hydroxylated 15-deoxy derivatives of 9-hydroxyl-13-trans-prostenoic acid” (American Cyanamid Company, priority 1976, dated 1977)
